Results: US10030027B2, “Soluble guanylate cyclase stimulators” (MERCK SHARP & DOHME CORP., priority 2015, dated 2018)

Legend:
sGC α1/β1 heterodimer = sGC α1/β1 heterodimer (Homo sapiens (Human), UniProt Q02108+Q02153); experiment: Cell-based sGC functional assay (cyclic GMP assay for sGC activator: CASA assay); set-up: % Activation: concentration or dose not given beside the values; details: CHO-K1/sGC cells; for % Activation: activity expressed as percentage of compound A (standard); for EC50: inflection point, 4P fit, read-out: IP; for Emax: CHO-K1, activity expressed as percentage of compound A (standard), read-out: % Activation
Summary of the method: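 CHO-K1 cells stably expressing sGC α1/β1 were pre-incubated with or without 1 μM DETA-NO (30 min, 25 °C), then exposed to compounds for 1 hr at 37 °C with 0.5 mM IBMX. Intracellular cGMP was read by HTRF and expressed as a percentage of a reference heme-dependent activator's maximum.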

[1] = target: human recombinant sGC enzyme (Homo sapiens (Human), UniProt Q02108+Q02153); experiment: Size Exclusion Chromatography (SEC) competition binding assay using [3H] Ex-77B as the radioligand; details: [3H] Ex-77B radioligand, 24 hours at 37° C.
Summary of the method: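 Recombinant human sGC binding measured by competition against tritiated Ex-77B radioligand, with non-specific binding defined by 1 μM unlabeled Ex-77B.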

[2] = test system: Spontaneously hypertensive rats (SHR); experiment: Acute efficacy in spontaneously hypertensive rats (SHR); format: in vivo, rat
Source text: Acute Efficacy in Spontaneously Hypertensive Rats (SHR)
Spontaneously hypertensive rats (SHR, male, Charles River) were implanted with DSI TA11PA-C40 telemetry device (Data Sciences, Inc., St. Paul, Minn.) under isoflurane or ketamine/metomidine anesthesia. The telemetry unit catheter was inserted into the descending aorta via the femoral artery and the telemetry device was implanted subcutaneously in the left flank area. Animals were allowed to recover from surgery for 14 days before the start of any studies. Blood pressure, heart rate, and activity signals from conscious, freely moving rats were recorded continuously for 30 seconds every 10 minutes. On the day prior to administration of compound, a single oral dose of vehicle (10% transcutol/20% Cremophor/70% water) was administered to all animals to establish baseline control data. The blood pressure lowering efficacy of compound (PO) or vehicle was evaluated following a single oral gavage. Data were collected as hourly averages, and changes in blood pressure were calculated by subtracting control baseline data on an hourly basis. Animals were maintained on normal diet with a 12 hour light-dark cycle.
Maximum peak decreases of systolic blood pressure (SBP) in SHR at a particular P.O. dose (mpk milligrams per kilogram) for the following Example compounds are provided.

| Compound | % Activation (sGC α1/β1 heterodimer) [%] | EC50 (sGC α1/β1 heterodimer) [nM] | Ki [1] [nM] | Emax (sGC α1/β1 heterodimer) [%] | Category: maximum peak decrease of systolic blood pressure (SBP) in SHR ([2]; Dose P.O. 3 mpk) | Category: maximum peak decrease of systolic blood pressure (SBP) in SHR ([2]; Dose P.O. 1 mpk) |
| --- | --- | --- | --- | --- | --- | --- |
| CC(Cc1ccc(C2(C)C(=O)Nc3nc(-c4nn(CCC(F)(F)C(F)(F)F)c5cc(Cl)ccc45)nc(N)c32)cc1)C(=O)O (single isomer, unassigned) [Example 34AA, 3-(4-{4-amino-2-[6-chloro-1-(3,3,4,4,4-pentafluorobutyl)-1H-indazol-3-yl]-5-methyl-6-oxo-6,7-dihydro-5H-pyrrolo[2,3-d]pyrimidin-5-yl}phenyl)-2-methylpropanoic acid] | 81 | 437 | 0.138 |  | A (decrease in SBP in SHRs 5-25 mmHg) |  |
| C[C@@]1(c2nc(CCC(=O)O)cs2)C(=O)Nc2nc(-c3nn(CCC(F)(F)C(F)(F)F)c4ncccc34)nc(N)c21 (single isomer, unassigned) [Example 82B] |  | 1370 | 0.223 | 107 | A (decrease in SBP in SHRs 5-25 mmHg) |  |
| CC(C)(Cc1ccc(C2(C)C(=O)Nc3nc(-c4nn(CCC(F)(F)C(F)(F)F)c5ncccc45)nc(N)c32)cc1)C(=O)O (stereo not shown) [Example 9B] |  | 1370 | 0.374 | 118 | A (decrease in SBP in SHRs 5-25 mmHg) |  |
| CCCCn1nc(-c2nc(N)c3c(n2)NC(=O)[C@@]3(C)c2ccc(CCC(=O)O)cc2)c2cccnc21 [Example 14B, (S)-3-(4-{4-amino-2-(1-butyl-1H-pyrazolo[3,4-b]pyridin-3-yl)-5-methyl-6-oxo-6,7-dihydro-5H-pyrrolo[2,3-d]pyrimidin-5-yl}phenyl)propanoic acid] |  | 525 | 0.21 | 90 | A (decrease in SBP in SHRs 5-25 mmHg) |  |
| CC1(c2cccc(CCC(=O)O)c2)C(=O)Nc2nc(-c3nn(Cc4ccccc4F)c4ncccc34)nc(N)c21 (stereo not shown) [Example 22A, 3-(3-{4-amino-2-[1-(2-fluorobenzyl)-1H-pyrazolo[3,4-b]pyridin-3-yl]-5-methyl-6-oxo-6,7-dihydro-5H-pyrrolo[2,3-d]pyrimidin-5-yl}phenyl)propanoic acid] |  | 423 | 0.078 | 91 | A (decrease in SBP in SHRs 5-25 mmHg) |  |
| CC(C)(Cc1cccc(C2(C)C(=O)Nc3nc(-c4nn(CCC(F)(F)C(F)(F)F)c5cc(Cl)ccc45)nc(N)c32)c1)C(=O)O (stereo not shown) [Example 27B, 3-(3-{4-amino-2-[6-chloro-1-(3,3,4,4,4-pentafluorobutyl)-1H-indazol-3-yl]-5-methyl-6-oxo-6,7-dihydro-5H-pyrrolo[2,3-d]pyrimidin-5-yl}phenyl)-2,2-dimethylpropanoic acid] |  | 331 | 0.221 | 120 |  | A (decrease in SBP in SHRs 5-25 mmHg) |
| CC(C)(Cc1ccc(C2(C)C(=O)Nc3nc(-c4nn(CCC(F)(F)C(F)(F)F)c5cc(Cl)ccc45)nc(N)c32)cc1)C(=O)O (stereo not shown) [Example 33B, 3-(4-{4-amino-2-[6-chloro-1-(3,3,4,4,4-pentafluorobutyl)-1H-indazol-3-yl]-5-methyl-6-oxo-6,7-dihydro-5H-pyrrolo[2,3-d]pyrimidin-5-yl}phenyl)-2,2-dimethylpropanoic acid] |  | 804 | 0.594 | 100 | B (decrease in SBP in SHRs 25-40 mmHg) |  |
| C[C@@]1(c2ccc(CCC(=O)O)cc2)C(=O)Nc2nc(-c3nn(Cc4ccccc4F)c4ccccc34)nc(N)c21 [Example 76B, (S)-3-(4-{4-Amino-2-[1-(2-fluorobenzyl)-1H-indazol-3-yl]-5-methyl-6-oxo-6,7-dihydro-5H-pyrrolo[2,3-d]pyrimidin-5-yl}phenyl)propanoic acid] |  |  |  |  | B (decrease in SBP in SHRs 25-40 mmHg) |  |

Further lines, with some results ahead:

| % Activation (sGC α1/β1 heterodimer) [%] | EC50 (sGC α1/β1 heterodimer) [nM] | Ki [1] [nM] | Emax (sGC α1/β1 heterodimer) [%] | Compound | Category: maximum peak decrease of systolic blood pressure (SBP) in SHR ([2]; Dose P.O. 3 mpk) | Category: maximum peak decrease of systolic blood pressure (SBP) in SHR ([2]; Dose P.O. 1 mpk) |
| --- | --- | --- | --- | --- | --- | --- |
| 76 | 132 | 0.162 |  | CC1CCC(Cn2nc(-c3nc(N)c4c(n3)NC(=O)[C@@]4(C)c3ccc(CCC(=O)O)cc3)c3ccc(Cl)cc32)CC1 (single isomer, unassigned) [Example 5BA] | B (decrease in SBP in SHRs 25-40 mmHg) |  |
| 115 | 771 | 0.231 |  | CC(Cc1ccc(C2(C)C(=O)Nc3nc(-c4nn(CCC(F)(F)C(F)(F)F)c5cc(Cl)ccc45)nc(N)c32)cc1)C(=O)O (single isomer, unassigned) [Example 34AB, 3-(4-{4-amino-2-[6-chloro-1-(3,3,4,4,4-pentafluorobutyl)-1H-indazol-3-yl]-5-methyl-6-oxo-6,7-dihydro-5H-pyrrolo[2,3-d]pyrimidin-5-yl}phenyl)-2-methylpropanoic acid] |  | A (decrease in SBP in SHRs 5-25 mmHg) |
|  | 152 | 0.112 | 86 | CCCCn1nc(-c2nc(N)c3c(n2)NC(=O)[C@@]3(C)c2ccc(CCC(=O)O)cc2)c2ccc(Cl)nc21 [Example 13B, (S)-3-(4-{4-amino-2-(1-butyl-6-chloro-1H-pyrazolo[3,4-b]pyridin-3-yl)-5-methyl-6-oxo-6,7-dihydro-5H-pyrrolo[2,3-d]pyrimidin-5-yl}phenyl)propanoic acid] | A (decrease in SBP in SHRs 5-25 mmHg) |  |
|  | 220 | 0.145 | 98 | CCCCn1nc(-c2nc(N)c3c(n2)NC(=O)[C@@]3(C)c2ccc(CCC(=O)O)cc2)c2ccc(Cl)cc21 [Example 38B, (S)-3-{4-[4-amino-2-(1-butyl-6-chloro-1H-indazol-3-yl)-5-methyl-6-oxo-6,7-dihydro-5H-pyrrolo[2,3-d]pyrimidin-5-yl]phenyl}propanoic acid] | A (decrease in SBP in SHRs 5-25 mmHg) |  |
|  | 245 | 0.123 | 127 | C[C@@]1(c2ccc(CCC(=O)O)cc2)C(=O)Nc2nc(-c3nn(CC4CCCCC4)c4cc(Cl)ccc34)nc(N)c21 [Example 44B, (S)-3-(4-{4-amino-2-[6-chloro-1-(cyclohexylmethyl)-1H-indazol-3-yl]-5-methyl-6-oxo-6,7-dihydro-5H-pyrrolo[2,3-d]pyrimidin-5-yl}phenyl)propanoic acid] | C (decrease in SBP in SHRs>40 mmHg) |  |
|  | 210 | 0.182 | 95 | CCCCCCn1nc(-c2nc(N)c3c(n2)NC(=O)[C@@]3(C)c2ccc(CCC(=O)O)cc2)c2ccc(Cl)cc21 [Example 45B, (S)-3-{4-[4-amino-2-(6-chloro-1-hexyl-1H-indazol-3-yl)-5-methyl-6-oxo-6,7-dihydro-5H-pyrrolo[2,3-d]pyrimidin-5-yl]phenyl}propanoic acid] | B (decrease in SBP in SHRs 25-40 mmHg) |  |
|  | 504 | 0.413 | 109 | CC(C)(C)CCCn1nc(-c2nc(N)c3c(n2)NC(=O)[C@@]3(C)c2ccc(CCC(=O)O)cc2)c2ccc(Cl)cc21 [Example 52B, (S)-3-(4-{4-amino-2-[6-chloro-1-(4,4-dimethylpentyl)-1H-indazol-3-yl]-5-methyl-6-oxo-6,7-dihydro-5H-pyrrolo[2,3-d]pyrimidin-5-yl}phenyl)propanoic acid] | A (decrease in SBP in SHRs 5-25 mmHg) |  |
|  | 1130 | 0.493 | 65 | C[C@@]1(c2ccc(CCC(=O)O)cc2)C(=O)Nc2nc(-c3nn(CC4CCC(F)(F)CC4)c4cc(Cl)ccc34)nc(N)c21 [Example 58B, (S)-3-(4-[4-amino-2-{6-chloro-1-[(4,4-difluorocyclohexyl)methyl]-1H-indazol-3-yl}-5-methyl-6-oxo-6,7-dihydro-5H-pyrrolo[2,3-d]pyrimidin-5-yl]phenyl)propanoic acid] | A (decrease in SBP in SHRs 5-25 mmHg) |  |
|  | 649 |  | 120 | C[C@@]1(c2ccc(CCC(=O)O)cc2)C(=O)Nc2nc(-c3nn(CC45CC6CC(CC(C6)C4)C5)c4cc(Cl)ccc34)nc(N)c21 [Example 70B, (S)-3-(4-{2-[1-(adamantan-1-ylmethyl)-6-chloro-1H-indazol-3-yl]-4-amino-5-methyl-6-oxo-6,7-dihydro-5H-pyrrolo[2,3-d]pyrimidin-5-yl}phenyl)propanoic acid] | A (decrease in SBP in SHRs 5-25 mmHg) |  |
